In patent US20120302607A1, “C4-SUBSTITUTED ALPHA-KETO OXAZOLES” (The Scripps Research Institute, priority 2008, published 2012):
Like-named read-outs stand apart in the source and are kept apart here.

Key:
FAAH = target: T1, FAAH (UniProt O08914); experiment: Proteome-wide serine hydrolase selectivity screening, FAAH; format: biochemical, human
T1 sequence (O08914 1-579): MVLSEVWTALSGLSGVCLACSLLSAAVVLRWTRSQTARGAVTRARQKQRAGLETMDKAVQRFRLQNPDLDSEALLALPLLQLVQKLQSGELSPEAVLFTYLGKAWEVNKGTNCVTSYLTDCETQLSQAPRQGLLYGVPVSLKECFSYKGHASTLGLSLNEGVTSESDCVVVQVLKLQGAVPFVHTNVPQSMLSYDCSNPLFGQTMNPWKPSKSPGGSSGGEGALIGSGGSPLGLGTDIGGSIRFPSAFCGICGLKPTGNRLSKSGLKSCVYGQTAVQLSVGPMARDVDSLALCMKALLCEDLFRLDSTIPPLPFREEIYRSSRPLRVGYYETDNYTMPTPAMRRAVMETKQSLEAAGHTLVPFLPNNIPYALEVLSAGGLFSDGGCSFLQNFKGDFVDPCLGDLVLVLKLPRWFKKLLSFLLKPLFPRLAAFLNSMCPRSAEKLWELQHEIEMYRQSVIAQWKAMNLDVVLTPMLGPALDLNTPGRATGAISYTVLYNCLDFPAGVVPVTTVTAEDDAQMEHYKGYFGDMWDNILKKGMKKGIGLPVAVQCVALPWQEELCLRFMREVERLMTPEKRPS

[1] = tested on: triacylglycerol hydrolase (TGH); experiment: Proteome-wide serine hydrolase selectivity screening, TGH; format: biochemical, human; details: value in parentheses; FAAH versus TGH
[2] = target: T2, triacylglycerol hydrolase (TGH) (UniProt Q8VCT4); experiment: as above; format: biochemical, human; details: selectivity screening
T2 sequence (Q8VCT4 1-565): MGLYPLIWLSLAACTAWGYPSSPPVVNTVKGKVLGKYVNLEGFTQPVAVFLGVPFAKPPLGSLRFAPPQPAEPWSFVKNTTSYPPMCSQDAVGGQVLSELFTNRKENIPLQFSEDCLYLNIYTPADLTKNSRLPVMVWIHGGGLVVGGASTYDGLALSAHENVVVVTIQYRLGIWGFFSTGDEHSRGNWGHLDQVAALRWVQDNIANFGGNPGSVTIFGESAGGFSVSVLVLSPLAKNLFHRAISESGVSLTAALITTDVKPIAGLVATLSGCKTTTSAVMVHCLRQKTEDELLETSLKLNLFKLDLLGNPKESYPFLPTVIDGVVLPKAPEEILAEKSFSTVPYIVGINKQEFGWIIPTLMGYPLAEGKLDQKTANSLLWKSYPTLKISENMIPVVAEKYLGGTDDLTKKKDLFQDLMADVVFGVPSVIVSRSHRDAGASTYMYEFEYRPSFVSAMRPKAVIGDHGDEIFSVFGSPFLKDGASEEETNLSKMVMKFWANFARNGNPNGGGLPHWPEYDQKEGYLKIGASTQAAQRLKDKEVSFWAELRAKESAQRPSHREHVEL

[3] = target: T3, truncated rat FAAH (rFAAH) (Rattus norvegicus, UniProt P97612); experiment: Rat FAAH inhibition enzyme assay (14C-oleamide hydrolysis, Dixon plot); format: biochemical
T3 construct: The truncated rat FAAH (rFAAH) was expressed in E. coli and purified as described by Patricelli et al; made in house; host or cells: E. coli
T3 sequence (P97612 30-579 limits assumed): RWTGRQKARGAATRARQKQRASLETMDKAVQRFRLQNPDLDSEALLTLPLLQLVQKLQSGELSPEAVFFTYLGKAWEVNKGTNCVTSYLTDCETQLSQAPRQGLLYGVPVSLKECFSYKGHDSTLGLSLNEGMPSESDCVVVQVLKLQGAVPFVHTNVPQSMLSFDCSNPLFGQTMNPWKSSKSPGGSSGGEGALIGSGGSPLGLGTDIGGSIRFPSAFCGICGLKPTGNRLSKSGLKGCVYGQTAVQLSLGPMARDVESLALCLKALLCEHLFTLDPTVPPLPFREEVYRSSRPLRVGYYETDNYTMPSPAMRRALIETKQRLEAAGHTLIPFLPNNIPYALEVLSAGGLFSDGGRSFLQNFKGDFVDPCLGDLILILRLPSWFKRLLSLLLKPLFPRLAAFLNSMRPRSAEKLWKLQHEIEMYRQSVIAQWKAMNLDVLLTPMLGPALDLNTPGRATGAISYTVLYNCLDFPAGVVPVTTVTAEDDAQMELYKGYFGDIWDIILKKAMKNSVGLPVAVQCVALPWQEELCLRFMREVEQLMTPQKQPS
Description: The purified recombinant rFAAH was used in the inhibition assays unless otherwise indicated.
The ^14C-labeled oleamide (substrate) and oleic acid (product) were extracted with EtOAc and analyzed by TLC. The Ki of the inhibitor was calculated using a Dixon plot (standard deviations are provided in the Supporting Information tables).

[4] = target: T4, membrane-associated hydrolase (KIAA1363) (UniProt Q8BLF1); experiment: Proteome-wide serine hydrolase selectivity screening, KIAA1363; format: biochemical; details: selectivity screening
T4 sequence (Q8BLF1 1-408): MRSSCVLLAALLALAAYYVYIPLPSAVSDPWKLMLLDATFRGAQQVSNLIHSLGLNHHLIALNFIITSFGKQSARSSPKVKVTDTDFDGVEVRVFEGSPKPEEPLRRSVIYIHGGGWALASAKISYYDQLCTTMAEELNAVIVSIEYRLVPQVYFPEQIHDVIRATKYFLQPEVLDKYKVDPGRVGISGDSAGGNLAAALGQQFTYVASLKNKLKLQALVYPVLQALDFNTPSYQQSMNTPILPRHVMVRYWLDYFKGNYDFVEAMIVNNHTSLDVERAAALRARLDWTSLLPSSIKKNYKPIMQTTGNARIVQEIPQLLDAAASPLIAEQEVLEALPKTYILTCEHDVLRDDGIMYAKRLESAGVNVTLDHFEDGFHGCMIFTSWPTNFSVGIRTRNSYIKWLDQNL

[5] = tested on: membrane-associated hydrolase (KIAA1363); experiment: as above; format: biochemical; details: value in parentheses; FAAH versus KIAA1363

SMILES: O=C(O)c1coc(C(=O)CCCCCCc2ccccc2)n1 [Compound 4o, 2-(7-Phenylheptanoyl)oxazole-4-carboxylic Acid]
- IC50 (FAAH): 500 nM
- TGH (selectivity) [1]: (5)
- IC50 [2]: 2500 nM
- Ki ([3]; Table 1, purified recombinant rFAAH, pH 9.0, read-out: Rat FAAH inhibition Ki): 53 nM
- Ki ([3]; Table 2, read-out: FAAH Ki): 53 nM
- Ki ([3]; Table 4, value ± error, read-out: Ki, inhibition results with calculated errors): 53 ± 1 nM
- IC50 [4]: > 100000 nM
- KIAA1363 (selectivity) [5]: (>200)
